Experimental data as given in the supplement of paper PMC10307832.

What was measured:
Assay in all cases: relative viability (nuclei count vs DMSO), 5 days (fraction); higher = more cells survive
[1] = compound: Cn1nnc2c(C(N)=O)ncn2c1=O [Temozolomide] + NC(=O)Nc1cc(-c2cccc(F)c2)sc1C(=O)N[C@H]1CCCNC1 [AZD7762] (partner 0.2 µM)
Summary of the method: (§1)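 Lung cancer cell lines in 1536-well plates were dosed by pin tool the day after seeding, either with one drug alone or with a fixed anchor-drug dose plus five library-drug doses (not always all listed) in √10 steps. After 5 days, cells were fixed and their nuclei stained in one step (final 0.05% Triton X-100, 1% formaldehyde, 1 ug/ml Hoechst), then counted on 4× images. Relative viability is the nuclei count in treated wells divided by that in vehicle wells. Values are medians of duplicate plates.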

[2] = compound: Cn1nnc2c(C(N)=O)ncn2c1=O [Temozolomide] + CCNC(=O)c1noc(-c2cc(C(C)C)c(O)cc2O)c1-c1ccc(CN2CCOCC2)cc1 [Luminespib] (partner 0.01 µM)
Summary of the method: as §1

[3] = compound: Cn1nnc2c(C(N)=O)ncn2c1=O [Temozolomide] + CS(=O)(=O)CCNCc1ccc(-c2ccc3ncnc(Nc4ccc(OCc5cccc(F)c5)c(Cl)c4)c3c2)o1 [Lapatinib] (partner 2 µM)
Summary of the method: as §1

[4] = compound: C[C@@H](C(=O)N[C@@H](C1CCCCC1)C(=O)N2CCC[C@H]2C(=O)N[C@@H]3[C@@H](CC4=CC=CC=C34)OCC#CC#CCO[C@@H]5CC6=CC=CC=C6[C@@H]5NC(=O)[C@@H]7CCCN7C(=O)[C@H](C8CCCCC8)NC(=O)[C@H](C)NC)NC [AZD5582] + COc1cccc2cc(-c3nc([C@H]4CC[C@H](C(=O)O)CC4)n4ncnc(N)c34)[nH]c12 [OSI-027] (partner 0.5 µM)
Summary of the method: as §1

Cell Line	relative viability ([1]; first compound 0.2 µM)	relative viability ([1]; first compound 0.6325 µM)	relative viability ([1]; first compound 2 µM)	relative viability ([1]; first compound 6.325 µM)	relative viability ([1]; first compound 20 µM)	relative viability ([2]; first compound 0.2 µM)	relative viability ([2]; first compound 0.6325 µM)	relative viability ([2]; first compound 2 µM)	relative viability ([2]; first compound 6.325 µM)	relative viability ([2]; first compound 20 µM)	relative viability ([3]; first compound 0.2 µM)	relative viability ([3]; first compound 0.6325 µM)	relative viability ([3]; first compound 2 µM)	relative viability ([3]; first compound 6.325 µM)	relative viability ([3]; first compound 20 µM)	relative viability ([4]; first compound 0.001581 µM)	relative viability ([4]; first compound 0.005 µM)	relative viability ([4]; first compound 0.01581 µM)	relative viability ([4]; first compound 0.05 µM)
201T	0.648	0.649	0.746	0.566	0.519	1.11	1.07	1.05	1.02	0.985	1.07	1.06	1.03	1.02	1.03	0.721	0.831	0.675	0.492
RERF-LC-KJ	0.977	0.926	0.989	0.953	1.01	1.29	1.19	1.32	1.19	1.27	0.819	0.922	0.909	0.767	0.846			0.508	0.289
NCI-H2347	0.572	0.743	0.757	0.792	0.706	0.417	0.414	0.608	0.488	0.322	1.18	1.01	0.93	0.781	0.908	0.335	0.388	0.364	0.456
NCI-H2126	1.05	1.02	1.02	0.959	1.11	0.917	0.927	1	0.802	0.888	0.82	0.771	0.793	0.771	0.797	0.709	0.703	0.522	0.607
NCI-H1792	0.9	0.775	0.711	0.532	0.676	0.412	0.436	0.44	0.493	0.508	1.06	0.973	0.895	0.899	0.861	0.679	0.872	0.73	1.06
NCI-H1437	1.09	1.12	1.14	1.12	1.14	1.1	1.09	1.12	1.12	1.11	0.8	0.817	0.822	0.875	0.975	0.787	0.893	0.77	0.94
NCI-H647	0.674	0.549	0.392	0.205	0.145	0.17	0.174	0.197	0.114	0.0944	1.41	1.16	1.27	0.891	0.275	0.599	0.704	0.463	0.75
LC-2-ad	0.842	0.85	0.873	0.837	0.675	0.928	1.05	1.09	0.899	0.988	0.961	1.02	0.962	0.964	0.895	0.823	1.05	0.725	0.957
NCI-H2087	1.38	1.31	1.46	1.35	1.33	0.204	0.188	0.188	0.165	0.168	1.07	0.992	0.902	1.09	0.983	0.523	0.695	0.514	0.568
NCI-H1944	0.432	0.505	0.391	0.441	0.696	0.59	0.829	0.907	0.729	0.711	0.835	0.831	0.871	0.843	0.799	0.369	0.428	0.412	0.446
